US12448392B2, “Spiropiperidine derivatives” (89BIO LTD, priority 2016, dated 2025)
Where two headings read alike, the source gives them in different places.

Experiments:
[1] = non-specific irreversible FASN inhibitors; cited from earlier work
[2] = tested on: viral replication (Flaviviridae family); settings: inhibition of FASN by small molecule inhibitors; cited from earlier work
[3] = target: T1, recombinant human baculovirus-expressed GST-tagged FASN (Homo sapiens, UniProt P49327); assay: biochemical
T1 construct: GST
T1 sequence (P49327 whole entry): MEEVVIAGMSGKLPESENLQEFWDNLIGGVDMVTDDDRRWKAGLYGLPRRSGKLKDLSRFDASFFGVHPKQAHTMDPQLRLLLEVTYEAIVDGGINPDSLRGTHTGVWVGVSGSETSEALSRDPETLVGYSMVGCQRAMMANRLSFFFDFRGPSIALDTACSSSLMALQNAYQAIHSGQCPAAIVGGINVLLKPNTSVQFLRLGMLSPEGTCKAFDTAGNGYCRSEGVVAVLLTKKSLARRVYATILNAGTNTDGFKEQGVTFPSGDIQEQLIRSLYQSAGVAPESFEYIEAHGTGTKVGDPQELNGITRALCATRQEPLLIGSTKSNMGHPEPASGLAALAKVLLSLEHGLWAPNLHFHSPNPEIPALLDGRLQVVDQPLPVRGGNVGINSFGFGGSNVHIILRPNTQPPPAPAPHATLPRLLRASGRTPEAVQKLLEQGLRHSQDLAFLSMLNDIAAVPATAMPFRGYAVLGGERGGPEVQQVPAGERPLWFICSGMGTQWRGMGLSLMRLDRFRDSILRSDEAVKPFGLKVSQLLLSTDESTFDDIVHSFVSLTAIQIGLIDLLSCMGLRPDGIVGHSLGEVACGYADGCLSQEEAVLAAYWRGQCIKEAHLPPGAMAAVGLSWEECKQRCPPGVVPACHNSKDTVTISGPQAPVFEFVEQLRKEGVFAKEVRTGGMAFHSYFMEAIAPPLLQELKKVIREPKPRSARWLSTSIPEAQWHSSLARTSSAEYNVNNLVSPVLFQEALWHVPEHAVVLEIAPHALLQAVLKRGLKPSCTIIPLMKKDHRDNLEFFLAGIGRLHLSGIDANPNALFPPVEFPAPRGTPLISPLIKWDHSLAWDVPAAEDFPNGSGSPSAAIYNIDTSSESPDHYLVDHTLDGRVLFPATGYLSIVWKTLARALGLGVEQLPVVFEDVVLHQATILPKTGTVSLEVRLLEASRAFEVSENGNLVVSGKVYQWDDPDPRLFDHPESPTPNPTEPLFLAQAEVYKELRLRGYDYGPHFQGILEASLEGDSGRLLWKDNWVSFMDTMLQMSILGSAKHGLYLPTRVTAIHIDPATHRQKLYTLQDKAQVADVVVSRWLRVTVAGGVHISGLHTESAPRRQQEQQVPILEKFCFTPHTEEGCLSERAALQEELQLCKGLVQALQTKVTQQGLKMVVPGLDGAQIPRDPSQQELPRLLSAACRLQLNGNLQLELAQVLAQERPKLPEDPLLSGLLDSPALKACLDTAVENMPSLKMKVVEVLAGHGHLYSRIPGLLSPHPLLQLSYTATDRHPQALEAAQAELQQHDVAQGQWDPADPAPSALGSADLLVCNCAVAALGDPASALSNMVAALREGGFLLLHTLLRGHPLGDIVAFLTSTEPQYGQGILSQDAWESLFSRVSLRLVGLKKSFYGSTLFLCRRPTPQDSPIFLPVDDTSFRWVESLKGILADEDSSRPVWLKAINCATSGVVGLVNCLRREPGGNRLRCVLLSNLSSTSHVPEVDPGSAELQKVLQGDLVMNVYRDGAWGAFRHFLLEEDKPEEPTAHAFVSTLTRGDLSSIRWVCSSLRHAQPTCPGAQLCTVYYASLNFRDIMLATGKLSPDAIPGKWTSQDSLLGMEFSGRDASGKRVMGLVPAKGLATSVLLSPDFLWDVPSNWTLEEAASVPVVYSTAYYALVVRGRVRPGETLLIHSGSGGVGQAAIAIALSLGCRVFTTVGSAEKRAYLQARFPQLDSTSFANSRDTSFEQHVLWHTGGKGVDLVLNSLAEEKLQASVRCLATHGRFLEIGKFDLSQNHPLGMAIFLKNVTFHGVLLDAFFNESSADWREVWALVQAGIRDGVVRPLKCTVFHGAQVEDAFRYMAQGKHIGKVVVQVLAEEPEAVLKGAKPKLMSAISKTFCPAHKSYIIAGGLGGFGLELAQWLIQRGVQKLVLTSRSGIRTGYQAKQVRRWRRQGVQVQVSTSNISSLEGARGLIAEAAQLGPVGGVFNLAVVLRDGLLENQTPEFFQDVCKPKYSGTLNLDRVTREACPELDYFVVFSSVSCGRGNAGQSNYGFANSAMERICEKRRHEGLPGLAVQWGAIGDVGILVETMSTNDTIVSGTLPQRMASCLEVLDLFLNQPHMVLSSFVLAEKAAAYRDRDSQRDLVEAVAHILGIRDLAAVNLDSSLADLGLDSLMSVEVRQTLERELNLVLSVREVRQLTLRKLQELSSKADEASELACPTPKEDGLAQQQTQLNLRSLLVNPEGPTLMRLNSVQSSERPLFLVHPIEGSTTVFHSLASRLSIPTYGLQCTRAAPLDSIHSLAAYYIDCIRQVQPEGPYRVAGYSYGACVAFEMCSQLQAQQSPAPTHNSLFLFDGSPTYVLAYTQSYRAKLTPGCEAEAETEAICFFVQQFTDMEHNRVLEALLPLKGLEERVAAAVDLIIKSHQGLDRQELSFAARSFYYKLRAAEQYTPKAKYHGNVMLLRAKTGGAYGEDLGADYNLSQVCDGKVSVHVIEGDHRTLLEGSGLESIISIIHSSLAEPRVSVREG

[4] = 5 nM FASN, 150 μM NADPH, 10 μM acetyl-CoA, 25 μM malonyl-CoA, 90 minutes incubation, read-out: IC50 data for Compounds of Formula I, Activity

C/C=C/C/C=C/CCC(=O)[C@H]1O[C@H]1C(N)=O [Cerulenin]
brain levels of orexigenic neuropeptides [1]: decrease brain levels of orexigenic neuropeptides | food intake [1]: decrease food intake | inhibition of viral replication [2]: strong inhibition of viral replication

CONC(=O)N1CCC2(CCc3cc(-c4ccc5cccnc5c4C)c(C)cc3O2)CC1 [Example 245, N-methoxy-7-methyl-6-(8-methyl-7-quinolyl)spiro[chromane-2,4′-piperidine]-1′-carboxamide]
IC50 [3, 4]: 100 to 999 nM

CONC(=O)N1CCC2(CCc3cc(-c4ccc5c(C)nccc5c4)c(C)cc3O2)CC1 [Example 246, N-Methoxy-7-methyl-6-(1-methyl-6-isoquinolyl)spiro[chromane-2,4′-piperidine]-1′-carboxamide]
IC50 [3, 4]: 100 to 999 nM

COc1cc(-c2ccc3cccnc3c2C)cc2c1OC1(CCN(C(N)=O)CC1)OC2 [Example 247, 8-Methoxy-6-(8-methyl-7-quinolyl)spiro[4H-1,3-benzodioxine-2,4′-piperidine]-1′-carboxamide]
IC50 [3]: 1000 to 10000 nM

CONC(=O)N1CCC2(CC1)OCc1cc(-c3ccc4c(C)nccc4c3)cc(OC)c1O2 [Example 248]
IC50 [3]: 1000 to 10000 nM

Cc1c(-c2cc(Cl)c3c(c2)CCC2(CCN(C(N)=O)CC2)O3)ccc2cccnc12 [Example 249, 8-chloro-6-(8-methyl-7-quinolyl)spiro[chromane-2,4′-piperidine]-1′-carboxamide]
IC50 [3, 4]: 1000 to 10000 nM

CONC(=O)N1CCC2(CCc3cc(-c4ccc5cccnc5c4C)cc(Cl)c3O2)CC1 [Example 250, 8-Chloro-N-methoxy-6-(8-methyl-7-quinolyl)spiro[chromane-2,4′-piperidine]-1′-carboxamide]
IC50 [3, 4]: 100 to 999 nM

Cc1c(-c2ccc3c(c2)CCC2(CCN(C(N)=O)CC2)O3)ccc2c(O)ccnc12 [Example 251, 6-(4-Hydroxy-8-methyl-7-quinolyl)spiro[chromane-2,4′-piperidine]-1′-carboxamide]
IC50 [3, 4]: 1000 to 10000 nM

C=C1C(=O)OC(CCCCCCCC)C1C(=O)O (stereo not shown) [Example C-75]
brain levels of orexigenic neuropeptides [1]: decrease brain levels of orexigenic neuropeptides | food intake [1]: decrease food intake

CCCCCCCCCCC[C@@H](C[C@@H]1OC(=O)[C@H]1CCCCCC)OC(=O)[C@H](CC(C)C)NC=O [Orlistat]
inhibition of viral replication [2]: strong inhibition of viral replication
